For experiment [1], the target named is T1, sigma receptors (Cavia porcellus, UniProt Q60492).
T1 construct: The brain was immediately extracted; The cerebellum was removed from the brain; from tissue; host or cells: guinea pig brain without cerebellum, membrane pellet
As to the kind of experiment: Receptor binding test: inhibition of tritium-labeled (+) pentazocine binding to brain homogenate. The arrangement: species or system male guinea pig. On the procedure: (§1) Properties relating to binding of the vesamicol piperazine derivatives of the present invention to various receptors were examined as follows. Specifically, ligands which combine with each receptor were incubated together with homogenates prepared as follows.
To measure affinity to sigma receptors, tritium-labeled (+) pentazocine was added to a brain homogenate prepared as follows. The vesamicol piperazine derivatives synthesized in the Examples were added at various concentrations, and the mixture was incubated for two hours at room temperature.
(§2) B (%) =((1 0 0 × [U])^(∩))/([ I C50 (])^(∩) (+ [U])^(∩)) [formula] wherein B(%) is the proportion of specific binding in the total binding, n indicates a Hill coefficient, and U is the concentration of unbound ligand.
A male guinea pig was anesthetized with ether and was decapitated. The brain was immediately extracted. The cerebellum was removed from the brain. 10 mM Tris-sucrose buffer solution (0.32 M sucrose + 10 mM Tris-HCl (pH 7.4)) was added in the amount of 10 ml/g of the tissue. The mixture was homogenized by a potter-type homogenizer for 6-10 strokes. The homogenate was centrifuged at 1,000 x g for 10 minutes at 4°C and the supernatant liquid was collected. The resulting pellets were suspended in the Tris-sucrose buffer solution at the concentration of 2 ml/g, followed by centrifugation at 1,000 x g for 10 minutes at 4°C. The supernatant liquids obtained by the two centrifugation at 1,000 x g were combined and centrifuged at 31,000 x g for 15 minutes at 4°C. The resulting pellets were suspended in a 10 mM Tris-HCl buffer solution (pH 7.4) at a concentration of 3 ml/g of tissue and incubated for 30 minutes at 25°C. After incubation, the suspension was centrifuged at 31,000 x g for 15 minutes at 4°C. The pellets obtained were suspended in a 10 mM Tris-HCl buffer solution (pH 7.4) to make a final concentration of 1.53 ml/g of tissue. The suspension was homogenized by a potter-type homogenizer for 5 strokes. The homogenate was stored at -80°C until the start of the experiment.

Experiment [2] deals with T2, vesamicol receptors (Rattus norvegicus, UniProt Q62666).
T2 sequence (Q62666 1-530): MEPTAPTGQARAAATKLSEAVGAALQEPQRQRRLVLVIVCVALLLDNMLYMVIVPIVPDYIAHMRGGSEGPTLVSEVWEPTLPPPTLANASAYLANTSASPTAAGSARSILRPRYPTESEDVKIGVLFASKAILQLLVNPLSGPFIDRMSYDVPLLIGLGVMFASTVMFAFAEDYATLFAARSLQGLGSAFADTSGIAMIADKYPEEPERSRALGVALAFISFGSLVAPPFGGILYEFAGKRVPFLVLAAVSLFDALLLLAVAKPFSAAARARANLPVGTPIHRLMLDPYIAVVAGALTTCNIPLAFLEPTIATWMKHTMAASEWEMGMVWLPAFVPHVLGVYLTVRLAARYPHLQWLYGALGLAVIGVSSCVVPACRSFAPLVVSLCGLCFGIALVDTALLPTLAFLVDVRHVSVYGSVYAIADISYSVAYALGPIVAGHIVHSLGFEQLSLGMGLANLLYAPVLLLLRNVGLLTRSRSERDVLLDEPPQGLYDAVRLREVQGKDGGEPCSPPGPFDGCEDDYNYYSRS
As to the kind of experiment: Receptor binding test: inhibition of I-125 labeled 5-iodobenzo vesamicol binding to brain homogenate. Details: from tissue; host or cells: rat brain without cerebellum, P2 fraction; species or system Male Wistar rats. The note with it: for IC50: Inhibitive concentration at 50% (IC50), Vesamicol receptor, Table 5, incubated three hours at 37°C, no unit printed in table (b19 gives nM for DRC140). The method, then: as §1
To measure affinity of vesamicol receptors, I-125 labeled 5-iodobenzo vesamicol (synthesized and labeled according to Jung et al., J. Med. Chem. 33, 2065-2068, 1990) was added to a brain homogenate prepared as follows. The vesamicol piperazine derivatives synthesized in the Examples were added at various concentrations. The mixture was then incubated for three hours at 37°C.
as §2
Male Wistar rats were anesthetized with ether and were decapitated. The brains were immediately extracted. The cerebella were removed from the brains. 0.32 M sucrose (containing 4 mM HEPES (pH 7.4)) in an amount of five times the wet amount (weight) of this sample was added. The sample was homogenized by a potter-type homogenizer for 12 strokes while cooling with ice. 0.32 M sucrose in the same amount as the homogenate (total: 10 times the wet amount of the original sample) was added. The suspension thus obtained was centrifuged for 5 minutes at 1,000 x g. The precipitate was removed. The supernatant liquid was centrifuged at 9,200 x g for 15 minutes to separate the precipitate from the supernatant liquid. P2 fractions were suspended in a Tris-HCl buffer (pH 7.4) for binding experiments and stored at -80°C until the start of the binding experiment.

Experiment [3] concerns the target T2, vesamicol receptors. As to the kind of experiment: Inhibition experiment: inhibition of binding of radioactive-iodine-labeled DRC140 to P2 fractions. The arrangement: Synaptic vesicles were extracted and separated from the brain of a rat; from tissue; host or cells: rat brain without cerebellum: P2, crude synaptic vesicles, purified synaptic vesicles.
Experiment [4] concerns the target T3, serotonin 5-HT1A receptors (Rattus norvegicus, UniProt P19327).
T3 construct: The hippocampi were immediately collected from the brains; from tissue; host or cells: rat hippocampus membranes
T3 sequence (P19327 1-422): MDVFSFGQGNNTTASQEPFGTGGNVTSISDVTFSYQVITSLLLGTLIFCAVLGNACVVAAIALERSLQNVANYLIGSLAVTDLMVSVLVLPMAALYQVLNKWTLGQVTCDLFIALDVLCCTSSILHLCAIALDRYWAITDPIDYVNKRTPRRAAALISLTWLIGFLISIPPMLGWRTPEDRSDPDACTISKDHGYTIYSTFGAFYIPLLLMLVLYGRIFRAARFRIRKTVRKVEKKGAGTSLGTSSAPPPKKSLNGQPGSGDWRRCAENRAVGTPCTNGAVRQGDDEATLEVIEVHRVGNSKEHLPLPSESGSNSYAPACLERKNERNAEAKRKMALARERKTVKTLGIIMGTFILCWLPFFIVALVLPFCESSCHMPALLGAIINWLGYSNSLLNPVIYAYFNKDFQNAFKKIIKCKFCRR
As to the kind of experiment: Receptor binding test: inhibition of tritium-labeled 8-hydroxy-DPAT binding to brain (hippocampus) homogenate. Details: species or system Male Wistar rats. The method, then:
as §1
To measure affinity to serotonin 5-HT1A receptors, tritium-labeled 8-hydroxy-DPAT was added to a brain homogenate prepared as follows. The vesamicol piperazine derivatives synthesized in the Examples were added at various concentrations, and the mixture was incubated for 30 minutes at 37°C. To measure affinity to serotonin 5-HT2A receptors, tritium-labeled ketanserin was added to a brain homogenate prepared as follows. The vesamicol piperazine derivatives synthesized in the Examples were added at various concentrations, and the mixture was incubated for 15 minutes at 37°C.
as §2
Male Wistar rats were anesthetized with ether and were decapitated and the brains quickly extracted. The hippocampi were immediately collected from the brains. A 40-fold (vol/wt) amount of ice cooled 50 mM Tris-HCl buffer (pH 7.4) was added to the hippocampi. The mixture was homogenized using a potter-type homogenizer. The homogenate was centrifuged at 40,000 x g for 20 minutes. The supernatant liquid was removed and the resulting pellets were suspended in a 40-fold amount of Tris-HCl buffer solution. The suspension was centrifuged and the Tris buffer solution was again added to the pellets. This procedure was repeated twice. The product thus obtained was homogenized using a 40-fold amount of Tris-HCl buffer solution and incubated for 10 minutes at 37°C to remove endogenic 5-HT. The cell membrane was collected by centrifugation, washed twice, and suspended in a 10-fold amount of 50 mM Tris-HCl buffer solution (pH 7.4). The suspension thus obtained was stored at -80°C until the start of the binding experiment.

In experiment [5] the target is adrenaline α1 receptors. As to the kind of experiment: Receptor binding test: inhibition of tritium-labeled prazosin binding to brain homogenate. The arrangement: species or system Male Wistar rats.
The target in experiment [6] is T2, vesamicol receptors. As to the kind of experiment: Saturation experiment of I-125 labeled DRC140 on brain cell fractions (Scatchard plots). Format: binding. The arrangement: Synaptic vesicles were extracted and separated from the brain of a rat; from tissue; host or cells: rat brain without cerebellum: P2, crude synaptic vesicles, purified synaptic vesicles. The note with it: for Bmax / Kd: average value ± standard deviation.

Setting [7] is: inhibitive concentration at 50% (IC50), Receptor Sigma-1.
[8] abbreviates: inhibitive concentration at 50% (IC50), Receptor Vesamicol.
Where [9] appears, read: Inhibitive concentration at 50% (IC50), Sigma α-1 receptor.

Read-outs that look alike come from different tables or passages of the source.

T1 sequence (Q60492 whole entry): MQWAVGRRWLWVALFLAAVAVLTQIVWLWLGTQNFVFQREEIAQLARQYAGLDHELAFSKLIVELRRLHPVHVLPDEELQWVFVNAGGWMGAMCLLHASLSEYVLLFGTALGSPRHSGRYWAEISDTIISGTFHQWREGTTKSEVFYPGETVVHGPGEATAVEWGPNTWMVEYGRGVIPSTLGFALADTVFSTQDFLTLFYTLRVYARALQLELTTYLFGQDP

With `Cc1cccc(N2CCN([C@@H]3Cc4c(I)cccc4C[C@H]3O)CC2)c1` (racemic) [DRF380, (±)-trans-5-iodo-2-hydroxy-3-[4-[3-methylphenyl]piperazinyl]tetralin], the IC50 stood at 16300 nM in experiment [1] (setting [7]), 3.69 nM in experiment [2] and 2.47 nM in experiment [3] (setting [8]).
The matching figures for `Cc1ccc(N2CCN([C@@H]3Cc4c(I)cccc4C[C@H]3O)CC2)cc1` (racemic) [DRF381, (±)-trans-5-iodo-2-hydroxy-3-[4-[4-methylphenyl]piperazinyl]tetralin]: 4780 nM, 13.9 nM and 14.7 nM.
For the compound `Cc1cccc(C)c1N1CCN([C@@H]2Cc3c(I)cccc3C[C@H]2O)CC1` (racemic) [DRF382, (±)-trans-5-iodo-2-hydroxy-3-[4-[2,6-dimethylphenyl]piperazinyl]tetralin], the IC50 in experiment [1] (setting [9]) was determined as 1300 nM; in experiment [2] it was 5.04 nM; in experiment [3] (setting [8]), 6.94 nM.
Take `Cc1ccc(I)cc1N1CCN([C@@H]2Cc3c(N)cccc3C[C@H]2O)CC1` (racemic) [DRF383, (±)-trans-5-amino-2-hydroxy-3-[4-[5-iodo-2-methylphenyl]-piperazinyl]tetralin]: the IC50 in experiment [1] (setting [9]) stood at 6900 nM; in experiment [2] it was 8.74 nM; in experiment [3] (setting [8]), 8.47 nM.
For `O[C@@H]1Cc2cc(I)ccc2C[C@H]1N1CCN(c2ccccc2)CC1` (racemic) [DRG449, (±)-trans-7-iodo-2-hydroxy-3-[4-phenylpiperazinyl]tetralin], the IC50 in experiment [1] (setting [7]) is 348 nM; in experiment [4], 4770 nM; in experiment [3] (setting [8]), 0.55 nM.
`Cc1ccccc1N1CCN([C@@H]2Cc3c(I)cccc3C[C@H]2O)CC1` (single isomer, unassigned) [DRE342, (-)-trans-5-iodo-2-hydroxy-3-[4-[2-methylphenyl]piperazinyl]tetralin]: the IC50 in experiment [1] (setting [9]) came to 50 nM; in experiment [4] it was 512 nM; in experiment [2], 0.23 nM; in experiment [3] (setting [8]), 0.56 nM.
For `Cc1ccc(C)c(N2CCN([C@@H]3Cc4c(I)cccc4C[C@H]3O)CC2)c1` (single isomer, unassigned) [DRE351, (+)-trans-5-iodo-2-hydroxy-3-[4-[2,5-dimethylphenyl]piperazinyl]tetralin], in that order: 4500 nM, 664 nM, 7.11 nM and 11.4 nM.
With `O[C@@H]1Cc2cccc(I)c2C[C@H]1N1CCC(c2ccccc2)CC1` [5-iodobenzovesamicol], the IC50 in experiment [5] (applicant's own research, read-out: affinity to an α1-receptor (IC50)) was 6.74 nM.
For the compound `O[C@@H]1Cc2cccc(I)c2C[C@H]1N1CCN(c2ccccc2)CC1` [DRC140, (-)-trans-5-iodo-2-hydroxy-3-(4-phenyl-1-piperazinyl)tetralin], the IC50 is 402 nM in experiment [5] (read-out: Inhibitive concentration at 50% (IC50), Adrenaline α1 receptor, Table 5, incubated 30 minutes at 37°C, unit inferred) and 402 nM in experiment [5] (text of disclosure, adrenaline-type nerve system receptor, read-out: IC50 value for α1-receptor). Moreover, in experiment [6] (at 37°C), the “time to reach equilibrium” value is 3 h. In experiment [2] (ratio of IC50 α1-receptor / vesamicol receptors), the “greater affinity to vesamicol receptors (versus α1-receptor)” value is listed as 190 times. For the same compound, the “activity to the vesamicol receptor as high as the activity to the sigma receptor” value in experiment [2] (ratio vesamicol receptor versus sigma receptor) is on record as 4,000 times.
In the case of `OC1Cc2cccc([125I])c2CC1N1CCN(c2ccccc2)CC1` (stereo not shown) [I-125 labeled DRC140], the Bmax came to 821±78.6 fmol/mg protein in experiment [6] (Crude synaptic vesicles); 187±58.3 fmol/mg protein in experiment [6] (P2 fraction, 3 hours at 37°C); 1751±92.6 fmol/mg protein in experiment [6] (Purified synaptic vesicles). Besides, the results for the Kd in experiment [6] (Crude synaptic vesicles), in experiment [6] (P2 fraction) and in experiment [6] (Purified synaptic vesicles) were 0.34 ± 0.03 nM, 0.41 ± 0.11 nM and 0.31 nM, respectively. In addition, the “increase in the Bmax of purified synaptic vesicles relative to P2 fractions” value in experiment [6] (purified by density gradient centrifugation versus P2 fractions) is listed as “approximately nine”.
In the case of “m-(iodobenzyl)trozamicol [(+)-MIBT, reference compound]”, the IC50 amounted to 421 nM in experiment [5] (read-out: inhibitive concentration at 50% (IC50), Receptor Alpha-1, Table 9, high purity derivatives, unit inferred); 4.27 nM in experiment [1] (read-out: inhibitive concentration at 50% (IC50), Receptor Sigma-1, Table 9, high purity derivatives, unit inferred); 16600 nM in experiment [4] (read-out: inhibitive concentration at 50% (IC50), Receptor 5-HT1A, Table 9, high purity derivatives, unit inferred); 0.89 nM in experiment [3] (read-out: inhibitive concentration at 50% (IC50), Receptor Vesamicol, Table 9, high purity derivatives (HPLC purified), I-125 labeled DRC140, P2 fractions, 3 hours at 37°C, unit inferred).

These data come from patent EP1205473A1, “VESAMICOL PIPERAZINE DERIVATIVES AND DRUGS CONTAINING THE SAME” (DAIICHI RADIOISOTOPE LABORATORIES, LTD., priority 1999, dated 2001).
